Experimental data as given in the NIST ThermoML archive (doi:10.1016/j.jct.2011.12.013).

What was measured:
[1] = Liquid, Custom Made Vibrating Tube Densimeter
[2] = xn = mol fraction of the nth substance listed; conditions: Liquid, Custom Made Vibrating Tube Densimeter, x1 = 1

C=C1CC[C@H]2C[C@@H]1C2(C)C [(1S,5S)-6,6-dimethyl-2-methylenebicyclo[3.1.1]heptane]
mass density [kg/m3], [1]
Conditions	283.15 K	298.15 K	313.15 K	328.15 K	343.15 K	358.15 K
20000 kPa	891.3	880.2	869.3	858.2	847.7	837
25000 kPa	894.2	883.3	872.6	861.7	851.4	840.9
30000 kPa	897	886.3	875.7	865.2	855	844.8
35000 kPa	899.9	889.3	878.8	868.7	858.6	848.7
40000 kPa	902.6	892.2	882	872.2	862.1	852.6

C=C(C)[C@H]1CC=C(C)CC1 [(R)-1-methyl-4-(1-methylethenyl)cyclohexene]
mass density [kg/m3], [1]
Conditions	283.15 K	298.15 K	313.15 K	328.15 K	343.15 K	358.15 K
20000 kPa	862	851.5	841	830.5	820.1	810.2
25000 kPa	864.9	854.5	844.2	833.8	823.7	813.9
30000 kPa	867.7	857.6	847.2	837.2	827.3	817.6
35000 kPa	870.4	860.9	850.3	840.4	831.1	821.3
40000 kPa	873.3	863.4	853.3	843.8	834.6	824.8

C=C(C)[C@H]1CC=C(C)CC1 [(R)-1-methyl-4-(1-methylethenyl)cyclohexene] + C=C1CC[C@H]2C[C@@H]1C2(C)C
mass density [kg/m3], [2]
Conditions	283.15 K	298.15 K	313.15 K	328.15 K	343.15 K	358.15 K
20000 kPa	862	851.5	841	830.5	820.1	810.2
25000 kPa	864.9	854.5	844.2	833.8	823.7	813.9
30000 kPa	867.7	857.6	847.2	837.2	827.3	817.6
35000 kPa	870.4	860.9	850.3	840.4	831.1	821.3
40000 kPa	873.3	863.4	853.3	843.8	834.6	824.8
